Where “and” joins values, the source holds several entries; their conditions need not be identical. Equal entries are not always repeated.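 Cultured in 96-well plates, cells were exposed to test compound for 48 hours across five concentrations. At the GI50, growth is halved. The concentration for full growth arrest is given as TGI.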
Columns and labels:
Assay in all cases: NCI anticancer screen, dose series, 48 h
NCI-H226 lung = tested on: NCI-H226 lung
TK-10 renal = tested on: TK-10 renal
NCI-H522 lung = tested on: NCI-H522 lung
EKVX NSCLC = tested on: EKVX NSCLC
CCRF-CEM leukemia = tested on: CCRF-CEM leukemia
SK-MEL-5 melanoma = tested on: SK-MEL-5 melanoma
OVCAR-8 ovarian = tested on: OVCAR-8 ovarian
COLO 205 colon = tested on: COLO 205 colon
MALME-3M melanoma = tested on: MALME-3M melanoma
MDA-MB-435 = tested on: MDA-MB-435

Compound	GI50 (NCI-H226 lung)	TGI (NCI-H226 lung)	GI50 (TK-10 renal)	TGI (TK-10 renal)	GI50 (NCI-H522 lung)	TGI (NCI-H522 lung)	GI50 (EKVX NSCLC)	TGI (EKVX NSCLC)	GI50 (CCRF-CEM leukemia)	TGI (CCRF-CEM leukemia)	GI50 (SK-MEL-5 melanoma)	TGI (SK-MEL-5 melanoma)	GI50 (OVCAR-8 ovarian)	TGI (OVCAR-8 ovarian)	GI50 (COLO 205 colon)	TGI (COLO 205 colon)	GI50 (MALME-3M melanoma)	TGI (MALME-3M melanoma)	GI50 (MDA-MB-435)	TGI (MDA-MB-435)
CCCS(=O)(=O)Nc1ccc(F)c(C(=O)c2c[nH]c3ncc(-c4ccc(Cl)cc4)cc23)c1F	9.23 µM and > 5.91 µM	36.7 µM and > 10 µM	5.99 µM and 5.48 µM	34.6 µM and > 10 µM	7.14 µM and > 7.96 µM	22.3 µM and > 10 µM	6.86 µM and > 10 µM	40.7 µM and > 10 µM	4.01 µM and 5.42 µM	23.7 µM and > 10 µM	0.471 µM and 1.85 µM	13.6 µM and > 10 µM	6.16 µM and > 8.65 µM	43.6 µM and > 10 µM	0.0487 µM and 0.0423 µM	11.2 µM and > 5.32 µM	0.0161 µM and 0.0331 µM	0.0772 µM	0.107 µM and 0.153 µM	8.86 µM and > 10 µM
COc1ccc(N2CCN(C(=O)c3ccccc3Nc3ccnc(C(F)(F)F)c3)CC2)cc1	96.5 µM	> 100 µM	54.7 µM	> 100 µM	18.1 µM	> 100 µM	39.3 µM	> 100 µM	53.9 µM	> 100 µM	10.3 µM	29.4 µM	40.7 µM	> 100 µM	63 µM	> 100 µM	> 100 µM	> 100 µM	38 µM	> 100 µM
COc1ccc2c(c1)CCC1C2CC[C@@]2(C)C1CC[C@@]2(O)CNC(=O)/C=C/c1ccc(O)c(OC)c1 (some centres undefined)	22.5 µM	74.6 µM	6.86 µM	> 100 µM	19.9 µM	> 100 µM	10.7 µM	83.7 µM	0.932 µM	> 100 µM	18.2 µM	46.6 µM	38.4 µM	> 100 µM	14 µM	35.3 µM	21.3 µM	> 100 µM	4.95 µM	> 100 µM
C/C1=C\[C@H](C)C[C@H](C)OC(=O)C[C@H](c2ccc(O)cc2)NC(=O)[C@@H](Cc2c(Br)[nH]c3ccccc23)N(C)C(=O)[C@H](C)NC(=O)[C@@H](C)C1	0.0268 µM	0.661 µM and 0.0703 µM	0.0982 µM	0.428 µM and 0.26 µM	0.0344 µM	0.908 µM and 1.13 µM	0.132 µM	0.746 µM and 1.83 µM	0.114 µM	> 23.7 µM	0.0451 µM	0.578 µM and 0.391 µM	0.0516 µM	0.568 µM	< 0.0132 µM	0.887 µM	0.032 µM	0.404 µM and 0.196 µM	0.0445 µM	17.7 µM
CN1/C(=C\C(I)C(I)C2=[N+](C)c3ccccc3C2(C)C)C(C)(C)c2ccccc21 (centres undefined)	0.2 µM	24.2 µM	0.521 µM	27.9 µM	0.257 µM	10.2 µM	0.369 µM	36.7 µM	0.226 µM	31 µM	0.126 µM	0.528 µM	0.303 µM	13.9 µM	0.21 µM	0.733 µM	0.277 µM	14 µM	0.26 µM	11.6 µM
C#CCN1C(=O)/C(=c2\sc3n(c2=O)C2C(NN=3)N(CC)C(=O)N2CC)c2ccccc21 (centres undefined)	1.25 µM	> 83.2 µM	14.1 µM	51.4 µM	0.447 µM	> 76 µM	1.8 µM	> 100 µM	0.381 µM	> 100 µM	0.529 µM	> 85.9 µM	1.07 µM	> 100 µM	0.987 µM	> 100 µM	0.595 µM	> 100 µM	0.214 µM	0.507 µM
COc1ccc(OC)c(-c2nc3sccn3c2/C=C2/C(=O)Nc3ccc(Cl)cc32)c1	20.8 µM	67.3 µM	29.9 µM	> 100 µM	21.5 µM	51.6 µM	36.1 µM	> 100 µM	32.1 µM	> 100 µM	17.4 µM	33.1 µM	34.4 µM	> 100 µM	18.5 µM	39.5 µM	30.8 µM	80.8 µM	17.2 µM	44.9 µM
O=C(c1ccccc1Nc1ccnc(C(F)(F)F)c1)N1CCN(c2cccc(Cl)c2)CC1	15 µM	49.2 µM	30.8 µM	> 100 µM	15.4 µM	63.5 µM	15.4 µM	> 87.5 µM	11.2 µM	> 84.5 µM	8.29 µM	21.8 µM	24.4 µM	> 87.8 µM	15.1 µM	30.1 µM	23.1 µM	69.3 µM	16.1 µM	66.7 µM
Nc1ccc(-c2nc3ccc4[nH]ncc4c3c3c2CCCC3)cc1F	0.686 µM	5.5 µM	0.828 µM	22.4 µM	0.989 µM	6.93 µM	0.215 µM	3.92 µM	1.5 µM	12.2 µM	0.986 µM	4.53 µM	1.57 µM	21.6 µM	1.42 µM	6.77 µM	1.74 µM	6.98 µM	1.38 µM	5.61 µM
Cc1ccc2c(c1)C(=O)c1c-2n(CCCN)c(=O)c2cc([N+](=O)[O-])ccc12	0.54 µM	1.33 µM	0.567 µM	1.24 µM	0.2 µM	0.985 µM	0.917 µM	2.22 µM	0.00683 µM	0.0559 µM	1.1 µM	3.6 µM	0.387 µM	1.33 µM	0.178 µM	0.913 µM	0.752 µM	1.71 µM	0.413 µM	1.09 µM
COc1cc(-c2cc(-c3ccc(N(C)C)cc3)nc(N3CCOCC3)c2C#N)cc(OC)c1OC	0.27 µM	0.995 µM	2.51 µM	> 100 µM	0.286 µM	–	0.988 µM	> 100 µM	1.21 µM	> 100 µM	0.171 µM	0.729 µM	1.27 µM	> 100 µM	0.355 µM	24.2 µM	1.55 µM	> 49.1 µM	0.843 µM	13.4 µM
COc1ccccc1/C=C\c1cnnc2ccccc12	–	> 10 µM	–	> 10 µM	–	> 10 µM	–	> 10 µM	–	> 10 µM	–	> 10 µM	–	> 10 µM	–	> 10 µM	–	> 10 µM	–	> 10 µM

Reference: PubChem BioAssay (NCI)
